One block for each compound: values may come before it.
Assays:
Experiment in all cases: competitive isoTOP-ABPP
Format in all cases: binding
[1] = molecular target: T1, PNPO Pyridoxine-5-phosphate oxidase (Homo sapiens, UniProt Q9NVS9); conditions: for isoTOP-ABPP ratio (R) at liganded lysine Q9NVS9_K100 / R value (DMSO/fragment) for probe 1 labeling / isoTOP-ABPP reactivity ratio at lysine Q9NVS9_K100: 50 uM, in vitro; for isoTOP-ABPP ratio (R) at liganded lysine Q9NVS9_K100: sol, 231; for R value (DMSO/fragment) for probe 1 labeling: Q9NVS9_K100; for R value (DMSO/fragment) for probe 1 labeling / isoTOP-ABPP reactivity ratio at lysine Q9NVS9_K100: 231 sol
T1 construct: endogenous in cells; host or cells: MDA-MB-231 (soluble fraction of lysate)
T1 sequence (Q9NVS9 1-261): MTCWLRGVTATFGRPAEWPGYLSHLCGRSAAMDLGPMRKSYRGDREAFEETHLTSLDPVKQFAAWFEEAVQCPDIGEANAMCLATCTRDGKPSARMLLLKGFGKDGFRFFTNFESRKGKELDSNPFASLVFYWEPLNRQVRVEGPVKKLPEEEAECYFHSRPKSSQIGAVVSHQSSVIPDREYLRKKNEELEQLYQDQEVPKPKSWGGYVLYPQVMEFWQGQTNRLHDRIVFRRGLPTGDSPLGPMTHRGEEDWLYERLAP
Method in brief: (§1)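 Lysate + fragment (50 μM activated ester / 100 μM guanidinylating agent) or DMSO → 0.1 mM STP-alkyne, 1 h, RT → CuAAC to TEV tags (compound light, DMSO heavy) → LC-MS. R = heavy/light MS1 area; liganded lysine if R≥4.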

[2] = molecular target: T2, GBAS Protein NipSnap homolog 2 (Homo sapiens, UniProt O75323); conditions: for isoTOP-ABPP ratio (R) at liganded lysine O75323_K75 / R value (DMSO/fragment) for probe 1 labeling / isoTOP-ABPP reactivity ratio at lysine O75323_K75: 50 uM, in vitro; for isoTOP-ABPP ratio (R) at liganded lysine O75323_K75: sol, 231; for R value (DMSO/fragment) for probe 1 labeling: O75323_K75; for R value (DMSO/fragment) for probe 1 labeling / isoTOP-ABPP reactivity ratio at lysine O75323_K75: 231 sol
T2 construct: isoTOP-ABPP experiments performed in cell lysates (in vitro); endogenous in cells; host or cells: MDA-MB-231 soluble lysate
T2 sequence (O75323 24-286): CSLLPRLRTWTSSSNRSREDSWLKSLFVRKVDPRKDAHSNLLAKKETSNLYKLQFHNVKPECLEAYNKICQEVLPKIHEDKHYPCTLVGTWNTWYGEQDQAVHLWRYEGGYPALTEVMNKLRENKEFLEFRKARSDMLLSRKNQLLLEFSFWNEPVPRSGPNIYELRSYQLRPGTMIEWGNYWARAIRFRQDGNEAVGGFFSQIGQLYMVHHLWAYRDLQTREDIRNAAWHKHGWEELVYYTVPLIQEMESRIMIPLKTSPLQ
Method in brief: as §1

FAH Fumarylacetoacetase = molecular target: T3, FAH Fumarylacetoacetase (Homo sapiens, UniProt P16930); conditions: for isoTOP-ABPP ratio (R) at liganded lysine P16930_K241 / R value (DMSO/fragment) for probe 1 labeling / isoTOP-ABPP reactivity ratio at lysine P16930_K241: 50 uM, in vitro; for isoTOP-ABPP ratio (R) at liganded lysine P16930_K241: sol, 231; for R value (DMSO/fragment) for probe 1 labeling: P16930_K241; for R value (DMSO/fragment) for probe 1 labeling / isoTOP-ABPP reactivity ratio at lysine P16930_K241: 231 sol
T3 construct: isoTOP-ABPP experiments performed in cell lysates (in vitro); endogenous in cells; host or cells: soluble proteome of human cancer cell lines (MDA-MB-231; Ramos and Jurkat also prepared)
T3 sequence (P16930 1-419): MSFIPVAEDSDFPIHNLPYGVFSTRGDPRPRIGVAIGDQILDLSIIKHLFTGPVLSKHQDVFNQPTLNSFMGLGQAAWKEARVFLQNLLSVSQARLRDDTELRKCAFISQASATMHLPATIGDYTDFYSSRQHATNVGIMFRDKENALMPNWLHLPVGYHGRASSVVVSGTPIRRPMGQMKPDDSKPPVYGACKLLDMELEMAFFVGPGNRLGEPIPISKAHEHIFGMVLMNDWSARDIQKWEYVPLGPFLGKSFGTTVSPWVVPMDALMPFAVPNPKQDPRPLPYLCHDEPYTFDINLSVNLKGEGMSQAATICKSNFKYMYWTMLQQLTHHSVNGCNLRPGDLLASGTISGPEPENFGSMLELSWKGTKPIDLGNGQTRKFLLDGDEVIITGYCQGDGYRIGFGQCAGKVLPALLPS
Method in brief: as §1

Structure (SMILES): O=C(CCc1ccc2c(c1)OCO2)Oc1ccc([N+](=O)[O-])cc1[N+](=O)[O-] [fragment 45, 2,4-Dinitrophenyl 3-(benzo[d][1,3]dioxol-5-yl)propanoate]
isoTOP-ABPP ratio, lysine Q9NVS9_K100 ([1]; 50 uM_231_sol_in vitro): 1.0
isoTOP-ABPP ratio, lysine O75323_K75 ([2]; 50 uM_231_sol_in vitro): 5.0
isoTOP-ABPP ratio, lysine P16930_K241 (FAH Fumarylacetoacetase; 50 uM_231_sol_in vitro): 1.3

Structure (SMILES): O=C(CCc1coc2cc(F)ccc2c1=O)Oc1ccc([N+](=O)[O-])cc1[N+](=O)[O-] [fragment 36, 2,4-Dinitrophenyl 3-(7-fluoro-4-oxo-4H-chromen-3-yl)propanoate]
isoTOP-ABPP ratio (R) at liganded lysine Q9NVS9_K100 [1]: 1.0
isoTOP-ABPP ratio (R) at liganded lysine O75323_K75 [2]: 20.0
isoTOP-ABPP ratio (R) at liganded lysine P16930_K241 (FAH Fumarylacetoacetase): 3.6

isoTOP-ABPP ratio, lysine Q9NVS9_K100 ([1]; 100 uM_231_sol_in vitro): 3.3
isoTOP-ABPP ratio, lysine O75323_K75 ([2]; 100 uM_231_sol_in vitro): 1.7
isoTOP-ABPP ratio, lysine P16930_K241 (FAH Fumarylacetoacetase; 100 uM_231_sol_in vitro): 1.3
Structure (SMILES): COC(=O)NC(=NC(=O)OCC1c2ccccc2-c2ccccc21)n1cccn1 [fragment 49, N-Methoxycarbonyl-N′-9-fluorenylmethoxycarbonyl-pyrazole-1-carboxamidine]

Structure (SMILES): O=C(CC12CC3CC(CC(C3)C1)C2)Oc1ccc([N+](=O)[O-])cc1[N+](=O)[O-] [fragment 38, 2,4-Dinitrophenyl 2-(adamantan-1-yl)acetate]
isoTOP-ABPP ratio (R) at liganded lysine Q9NVS9_K100 [1]: 0.9
isoTOP-ABPP ratio (R) at liganded lysine O75323_K75 [2]: 1.3
isoTOP-ABPP ratio (R) at liganded lysine P16930_K241 (FAH Fumarylacetoacetase): 1.0

R value (DMSO/fragment) for probe 1 labeling [1]: 1.8
R value (DMSO/fragment) for probe 1 labeling [2]: 1.1
R value (DMSO/fragment) for probe 1 labeling (FAH Fumarylacetoacetase): 2.8
Structure (SMILES): COc1cc(CCC(=O)Oc2c(F)c(F)c(F)c(F)c2F)cc(OC)c1OC [fragment 23, Pentafluorophenyl 3-(3,4,5-trimethoxyphenyl)propanoate]

blockade of probe 1 labeling of K100 ([1]; PNPO K100): fully blocking probe 1 labeling
R value (DMSO/fragment) for probe 1 labeling [1]: 20.0
R value (DMSO/fragment) for probe 1 labeling [2]: 1.5
R value (DMSO/fragment) for probe 1 labeling (FAH Fumarylacetoacetase): 3.0
Structure (SMILES): Cn1cc(CC(=O)Oc2c(F)c(F)c(F)c(F)c2F)c2ccccc21 [fragment 22, Pentafluorophenyl 2-(1-methyl-1H-indol-3-yl)acetate]

Structure (SMILES): O=C(Oc1ccc([N+](=O)[O-])cc1[N+](=O)[O-])c1ccc2ccccc2n1 [fragment 35, 2,4-Dinitrophenyl quinoline-2-carboxylate]
isoTOP-ABPP ratio (R) at liganded lysine Q9NVS9_K100 [1]: 0.9
isoTOP-ABPP ratio (R) at liganded lysine O75323_K75 [2]: 1.6
isoTOP-ABPP ratio (R) at liganded lysine P16930_K241 (FAH Fumarylacetoacetase): 3.4

isoTOP-ABPP reactivity ratio at lysine Q9NVS9_K100 [1]: 0.9
isoTOP-ABPP reactivity ratio at lysine O75323_K75 [2]: 1.0
isoTOP-ABPP reactivity ratio at lysine P16930_K241 (FAH Fumarylacetoacetase): 1.1
Structure (SMILES): O=C(Oc1c(F)c(F)c(F)c(F)c1F)C1CCN(C(=O)OCc2ccccc2)CC1 [fragment 24, 1-Benzyl 4-(pentafluorophenyl) piperidine-1,4-dicarboxylate]

isoTOP-ABPP reactivity ratio at lysine Q9NVS9_K100 [1]: 1.0
isoTOP-ABPP reactivity ratio at lysine O75323_K75 [2]: 1.4
isoTOP-ABPP reactivity ratio at lysine P16930_K241 (FAH Fumarylacetoacetase): 5.2
Structure (SMILES): O=C(Oc1c(F)c(F)c(F)c(F)c1F)c1ccc2ccccc2n1 [fragment 25, Pentafluorophenyl quinoline-2-carboxylate]

R value (DMSO/fragment) for probe 1 labeling [1]: 0.9
R value (DMSO/fragment) for probe 1 labeling [2]: 0.9
R value (DMSO/fragment) for probe 1 labeling (FAH Fumarylacetoacetase): 1.0
Structure (SMILES): O=C(Oc1c(F)c(F)c(F)c(F)c1F)C(c1ccccc1)c1ccccc1 [fragment 20, Pentafluorophenyl 2,2-diphenylacetate]

Structure (SMILES): O=C(Oc1ccc([N+](=O)[O-])cc1[N+](=O)[O-])c1cc(C(F)(F)F)cc(C(F)(F)F)c1 [fragment 31, 2,4-Dinitrophenyl 3,5-bis(trifluoromethyl)benzoate]
isoTOP-ABPP reactivity ratio at lysine Q9NVS9_K100 [1]: 1.0
isoTOP-ABPP reactivity ratio at lysine O75323_K75 [2]: 0.8
isoTOP-ABPP reactivity ratio at lysine P16930_K241 (FAH Fumarylacetoacetase): 20.0

isoTOP-ABPP ratio, lysine Q9NVS9_K100 ([1]; 100 uM_231_sol_in vitro): 1.1
isoTOP-ABPP ratio, lysine O75323_K75 ([2]; 100 uM_231_sol_in vitro): 1.3
isoTOP-ABPP ratio, lysine P16930_K241 (FAH Fumarylacetoacetase; 100 uM_231_sol_in vitro): 1.5
Structure (SMILES): CC(C)(C)OC(=O)N=C(NC(=O)OC(C)(C)C)n1cccn1 [fragment 50, reference compound]
